This note sets out measurements from ChEMBL document CHEMBL1151554, “Non thiazolidinedione antihyperglycaemic agents. 1: -Heteroatom substituted -phenylpropanoic acids” (Bioorg Med Chem Lett, 1996).

The subject of one assay is Mus musculus. Put plainly: In vivo inhibition of glucose load induced hyperglycaemia in fasted C57B1/6 ob/ob mice. The class given is functional.
Assay [1] concerns the target T1, Peroxisome proliferator-activated receptor gamma (Homo sapiens) (UniProt P37231).
T1 sequence (whole entry): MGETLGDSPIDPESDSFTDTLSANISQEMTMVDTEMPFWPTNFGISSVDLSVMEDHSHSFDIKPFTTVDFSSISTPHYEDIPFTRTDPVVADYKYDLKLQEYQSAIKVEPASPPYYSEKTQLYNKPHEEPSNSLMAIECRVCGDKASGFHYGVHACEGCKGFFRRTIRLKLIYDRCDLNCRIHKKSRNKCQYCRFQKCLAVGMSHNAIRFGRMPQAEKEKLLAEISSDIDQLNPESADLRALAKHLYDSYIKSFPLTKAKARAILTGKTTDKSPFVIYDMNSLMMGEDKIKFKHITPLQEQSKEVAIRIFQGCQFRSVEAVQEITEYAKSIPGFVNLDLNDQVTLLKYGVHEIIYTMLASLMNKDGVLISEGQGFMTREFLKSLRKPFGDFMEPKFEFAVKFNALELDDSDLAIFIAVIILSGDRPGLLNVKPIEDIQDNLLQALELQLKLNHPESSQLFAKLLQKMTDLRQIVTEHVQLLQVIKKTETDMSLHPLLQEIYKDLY

Assay [2] deals with T2, Peroxisome proliferator-activated receptor gamma (Homo sapiens, UniProt P37231).
T2 sequence (P37231 whole entry): T1 sequence (whole entry)
Description: inhibition of [125I]SB 236636 binding to human PPAR gamma receptor

On to `CN(CCOc1ccc(CC(OCc2ccccc2)C(=O)[O-])cc1)c1nc2ccccc2o1.[Na+]` (stereo unspecified), for which the ED25 with Mus musculus worked out at 0.3 µM/kg. With `CN(CCOc1ccc(CC(F)C(=O)O)cc1)c1nc2ccccc2o1` (stereo unspecified), in the assay on Mus musculus, the ED25 was found to be 10 µM/kg.

The compound `CCCOC(Cc1ccc(OCCN(C)c2nc3ccccc3o2)cc1)C(=O)[O-].[Na+]` (stereo unspecified) showed an ED25 in the assay with Mus musculus of 0.3 µM/kg.

Take `COC(=O)C(Br)Cc1ccc(OCCN(C)c2nc3ccccc3o2)cc1` (stereo unspecified): the ED25 in the assay on Mus musculus worked out at 100 µM/kg. The compound `COC(=O)C(Cc1ccc(OCCN(C)c2nc3ccccc3o2)cc1)N(C)C` (stereo unspecified) showed an ED25 in the assay on Mus musculus of 1000 µM/kg. In addition, the Displacement in assay [1] was 26%.

Consider `CN(CCOc1ccc(CC(C(=O)O)S(=O)(=O)c2ccccc2)cc1)c1nc2ccccc2o1` (stereo unspecified), for which the ED25 in the assay on Mus musculus amounted to 1000 µM/kg. Turning to `CN(CCOc1ccc(CC(Nc2ccccc2)C(=O)O)cc1)c1nc2ccccc2o1` (stereo unspecified), the ED25 in the assay with Mus musculus was found to be 30 µM/kg. In the assay on Mus musculus, `CNC(Cc1ccc(OCCN(C)c2nc3ccccc3o2)cc1)C(=O)OC` (stereo unspecified) had an ED25 of 1000 µM/kg. The same measure, in the same setting: then `Cc1c(C)c2c(c(C)c1O)CCC(C)(COc1ccc(CC3SC(=O)NC3=O)cc1)O2` (stereo unspecified) [TROGLITAZONE], with 400 µM/kg; and `COC(=O)C(Cl)Cc1ccc(OCCN(C)c2nc3ccccc3o2)cc1` (stereo unspecified), with 10 µM/kg. Turning to `COC(=O)C(Cc1ccc(OCCN(C)c2nc3ccccc3o2)cc1)Sc1ccccc1` (stereo unspecified), in the assay with Mus musculus, the ED25 turned out to be 30 µM/kg. As for `CN(CCOc1ccc(CC(Cl)C(=O)O)cc1)c1nc2ccccc2o1` (stereo unspecified), the ED25 in the assay on Mus musculus amounted to 10 µM/kg. Take `CN(CCOc1ccc(CC(OCCc2ccccc2)C(=O)O)cc1)c1nc2ccccc2o1` (stereo unspecified): the ED25 in the assay on Mus musculus turned out to be 1 µM/kg. Compound `COC(=O)C(Cc1ccc(OCCN(C)c2nc3ccccc3o2)cc1)OC` (stereo unspecified) displayed an ED25 in the assay with Mus musculus of 3 µM/kg. For `CN(CCOc1ccc(CC(S)C(=O)O)cc1)c1nc2ccccc2o1` (stereo unspecified), in the assay on Mus musculus, the ED25 stood at 300 µM/kg. As to `CN(CCOc1ccc(CC(Oc2ccccc2)C(=O)O)cc1)c1nc2ccccc2o1` (stereo unspecified), the ED25 in the assay on Mus musculus came to 1 µM/kg. Also, in assay [2], the affinity corresponds to a Ki of 0.4 nM. `COC(=O)C(Cc1ccc(OCCN(C)c2nc3ccccc3o2)cc1)OC(C)C` (stereo unspecified) showed an ED25 in the assay with Mus musculus of less than 0.3 µM/kg. `CN(CCOc1ccc(CC(Sc2ccccc2)C(=O)O)cc1)c1nc2ccccc2o1` (stereo unspecified): the ED25 with Mus musculus turned out to be 30 µM/kg. Further, the Ki in assay [2] came to 37 nM. In the case of `COC(Cc1ccc(OCCN(C)c2nc3ccccc3o2)cc1)C(=O)O` (stereo unspecified), the ED25 with Mus musculus stood at 3 µM/kg. `COC(=O)CCc1ccc(OCCN(C)c2nc3ccccc3o2)cc1`: the ED25 with Mus musculus was greater than 2000 µM/kg. `COC(=O)C(Cc1ccc(OCCN(C)c2nc3ccccc3o2)cc1)SC` (stereo unspecified) registered an ED25 in the assay on Mus musculus of 100 µM/kg. Compound `CN(CCOc1ccc(CC2SC(=O)NC2=O)cc1)c1nc2ccccc2o1` (stereo unspecified) [BRL-48482] registered an ED25 in the assay on Mus musculus of 3 µM/kg. The same measure, in the same setting: the result for `CCOC(Cc1ccc(OCCN(C)c2nc3ccccc3o2)cc1)C(=O)O` (stereo unspecified) reads 0.1 µM/kg.
